The text below walks through data of US11633377B2, “Treatment of circadian rhythm disorders” (Vanda Pharmaceuticals Inc., priority 2012, dated 2023).

A short description of series [1]: Effect of fluvoxamine co-administration on tasimelteon pharmacokinetics. Format: in vivo, human. The following applies: for AUC: both sexes, human, in vivo. As to the method:
Twenty-four healthy male or female subjects between the ages of 18 and 55 years of age (inclusive) who were non-smokers with a body mass index (BMI) of 18 and 35 kg/m2 participated in this open-label, single-sequence study conducted at one site. On day 1, subjects were administered 5.667 mg of tasimelteon.

Series [2] in a line: Effect of smoking on concentration of tasimelteon and metabolites. Format: in vivo, human. From the text:
Smokers were defined as those smoking 10 or more cigarettes per day. Non-smokers were defined as those smoking no cigarettes per day.

The target in series [3] is T1, Mel1b (MT2R) (Homo sapiens, UniProt P49286).
T1 sequence (P49286 1-362): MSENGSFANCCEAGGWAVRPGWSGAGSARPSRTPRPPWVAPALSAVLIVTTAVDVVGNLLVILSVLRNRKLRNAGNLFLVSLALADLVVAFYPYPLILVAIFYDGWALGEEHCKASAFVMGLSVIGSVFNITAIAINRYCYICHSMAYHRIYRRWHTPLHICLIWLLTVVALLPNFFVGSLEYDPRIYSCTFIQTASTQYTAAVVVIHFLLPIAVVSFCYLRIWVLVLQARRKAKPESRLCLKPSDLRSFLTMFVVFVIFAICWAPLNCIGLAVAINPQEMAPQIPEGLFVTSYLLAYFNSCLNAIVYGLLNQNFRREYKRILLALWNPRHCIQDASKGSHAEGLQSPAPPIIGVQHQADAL
The series is described as follows: Affinity (Ki) for melatonin receptor MT2R. Format: binding. The following applies: MT2R vs MT1R.

Series [4] is described as follows: Solubility and pH of saturated solution. The class given is physicochemical.
The subject of series [5] is patients with Non-24. The series is described as follows: SET Study: Phase III randomized, double-masked, placebo-controlled study in Non-24. Format: in vivo, human. As to the method:
Specifically, patients were orally administered 20 mg tasimelteon per day for at least 12 weeks prior to re-estimating tau. Patients were selected for randomization or open label based on baseline tau estimates. Drug was administered at about 1 hour prior to target sleep time, as determined by patients based on a 9 hour nighttime sleep period.
The SET study was an 84 patient randomized, double-masked, placebo-controlled study in patients with Non-24. The primary endpoints for this study were Entrainment of the melatonin (aMT6s) rhythm to the 24-hour clock and Clinical Response as measured by Entrainment plus a score of greater than or equal to 3 on the following N24CRS:
The SET study also assessed a number of secondary endpoints including Entrainment of cortisol rhythm and a broad range of clinical sleep and wake parameters. These parameters included improvement in the total nighttime sleep in the worst 25% of nights (LQ-nTST), decrease in the total daytime sleep duration in the worst 25% of days (UQ-dTSD) and midpoint of sleep timing (MoST) which is derived from a combination of the sleep reported for both nighttime and daytime. CGI-C is a seven-point rating scale of global functioning with lower scores indicating larger improvements.

Series [6] deals with blind individuals with Non-24. Description: RESET Study: randomized withdrawal study, maintenance of effect in Non-24. The class given is in vivo, human. As to the method: Patients were treated with tasimelteon for at least twelve weeks during an open-label run-in phase during the SET Study. Patients who responded to tasimelteon treatment during the run-in phase were then randomized to receive either placebo or tasimelteon (20 mg/day) for 2 months.
The primary endpoint of the RESET Study was the maintenance of effect as measured by entrainment of the melatonin (aMT6s) rhythm.
The RESET study also assessed a number of secondary endpoints including maintenance of entrainment of the cortisol rhythm and a range of sleep and wake parameters including LQ-nTST (total nighttime sleep in the worst 25% of nights), UQ-dTSD (total daytime sleep duration in the worst 25% of days) and MoST (midpoint of sleep timing from both nighttime and daytime sleep).

Series [7] relates to Non-24 patients. The series is described as follows: Entrainment by baseline peak aMT6s and beta blocker status (clinical studies). The class given is in vivo, human. As to the method:
Results of clinicalstudy also show a strong correlation between endogenous melatonin and efficacy of tasimelteon in entraining patients to a 24 hour circadian rhythm. The following table (Table 3A) compares the peak aMT6s levels in the 24 entrained and 23 non-entrained patients.
Data from these studies currently available also indicate that beta blocker therapy is […] related to efficacy of tasimelteon, i.e., patients receiving beta blocker therapy were less likely to become entrained than patients who were not.

Series [8] can be described thus: tmax after administration. The class given is in vivo, human. The following applies: tasimelteon.
[9] abbreviates: Day 8 (with fluvoxamine) vs Day 1.
Where [10] appears, read: Day 1: 5.667 mg tasimelteon alone.
[11] abbreviates: Day 8: 5.667 mg tasimelteon + 50 mg fluvoxamine.
Where [12] appears, read: fluvoxamine + tasimelteon vs tasimelteon alone.

Where two headings read alike, the source gives them in different places.

On to `CCC(=O)NC[C@@H]1C[C@H]1c1cccc(O)c1CC(=O)O` [M9], for which, in series [1] (setting [9]), the “Geometric Mean Ratio, AUC” value was found to be 122.56%; the “Geometric Mean Ratio, Cmax” value worked out at 64.94%; the “Geometric Mean Ratio, t1/2” value came to 328.02%. Further, the AUC in series [1] (setting [10]) stood at 104 ± 30 ng·h/mL. Further, in series [2] (Smokers vs Non-Smokers), the “Geometric Mean Ratio, AUC (inf)” value is 74.36%; the “Geometric Mean Ratio, Cmax” value was found to be 77.18%; the “Geometric Mean Ratio, t1/2” value came out at 85.40%.
With `CCC(=O)NC[C@@H]1C[C@H]1c1cccc(O)c1CCO` [M11], in series [1] (setting [9]), the “Geometric Mean Ratio, AUC” value is 126.03%; the “Geometric Mean Ratio, Cmax” value is reported as 68.71%; the “Geometric Mean Ratio, t1/2” value was determined as 248.35%. For the same molecule, the AUC in series [1] (setting [10]) was found to be 44.5 ± 17.2 ng·h/mL. Moreover, in series [2] (Smokers vs Non-Smokers), the “Geometric Mean Ratio, AUC (inf)” value worked out at 81.84%; the “Geometric Mean Ratio, Cmax” value is recorded as 84.50%; the “Geometric Mean Ratio, t1/2” value was 94.13%.
As to `CCC(=O)NCC1CC1c1cccc2c1CC(O)O2` (centres unmarked) [M13], the “AUC (ml)” value in series [1] (setting [10]) came out at 106 ± 32.6 ng·h/mL. For the same molecule, in series [1] (setting [9]), the “Geometric Mean Ratio, AUC” value was 125.05%; the “Geometric Mean Ratio, Cmax” value worked out at 69.31%; the “Geometric Mean Ratio, t1/2” value is given as 349.81%. Besides, the “AUC (ml)” value in series [1] (setting [11]) amounted to 133 ± 32.9 ng·h/mL. In series [2] (Smokers vs Non-Smokers), the “Geometric Mean Ratio, AUC (inf)” value turned out to be 97.31%; the “Geometric Mean Ratio, Cmax” value was found to be 99.49%; the “Geometric Mean Ratio, t1/2” value worked out at 77.51%.
Consider `CCC(=O)NCC1CC1c1cccc2c1C(O)CO2` (centres unmarked) [M12], for which, in series [1] (setting [10]), the “AUC (ml)” value was found to be 189 ± 90.8 ng·h/mL. Also, in series [1] (setting [9]), the “Geometric Mean Ratio, AUC” value is listed as 274.81%; the “Geometric Mean Ratio, Cmax” value is listed as 92.74%; the “Geometric Mean Ratio, t1/2” value worked out at 241.02%. Moreover, the “AUC (ml)” value in series [1] (setting [11]) stood at 435 ± 109.3 ng·h/mL. For the same molecule, in series [2] (Smokers vs Non-Smokers), the “Geometric Mean Ratio, AUC (inf)” value turned out to be 84.87%; the “Geometric Mean Ratio, Cmax” value is listed as 115.53%; the “Geometric Mean Ratio, t1/2” value amounted to 73.31%.
In the case of `CCC(=O)NCC1CC1c1cccc2c1C(O)CO2` (centres unmarked) [M14], in series [1] (setting [10]), the “AUC (ml)” value amounted to 4.54 ± 2.39 ng·h/mL. Also, in series [1] (setting [9]), the “Geometric Mean Ratio, AUC” value was determined as 944.73%; the “Geometric Mean Ratio, Cmax” value worked out at 264.58%; the “Geometric Mean Ratio, t1/2” value is on record as 243.34%. In series [1] (setting [11]), the “AUC (ml)” value came out at 42.6 ± 27.3 ng·h/mL. In addition, in series [2] (Smokers vs Non-Smokers), the “Geometric Mean Ratio, AUC (inf)” value was found to be 42.98%; the “Geometric Mean Ratio, Cmax” value is recorded as 60.17%; the “Geometric Mean Ratio, t1/2” value came to 65.09%.
With `CCC(=O)NC[C@@H]1C[C@H]1c1cccc2c1CCO2` (relative stereo) [Tasimelteon, trans-N-[[2-(2,3-dihydrobenzofuran-4-yl)cycloprop-1yl]methyl]propanamide], in series [3], the “greater affinity for MT2R relative to MT1R” value is 2-4 times. In addition, in series [4], the “native pH of a saturated solution in water” value amounted to 8.5. For the same molecule, in series [5] (20 mg/day oral), the “Clinical Response 2 (Entrainment + N24CRS >=2)” value is given as 28.9% and the “Entrainment (aMT6s)” value came to 20.0%. For the same molecule, in series [5] (LS mean), the “LQ-nTST (LS mean minutes)” value was determined as 57.0 min. Further, the “CGI-C (LS mean minutes)” value in series [5] (LS mean, smaller numbers indicate improvement) is 2.6 min. Besides, the “LQ-nTST and UQ-dTSD >=90 mm” value in series [5] (only subjects with significant sleep and nap problems at baseline) is on record as 23.8%. In addition, the “time to relapse analysis” value in series [6] (45 min decrement of weekly average nighttime sleep, P=0.0907) was “placebo treated patients relapsed in higher numbers and at an earlier time than tasimelteon treated patients”. Further, in series [6] (RESET, 20 mg/day), the “Maintenance of entrainment (aMT6s)” value is given as 90.0% and the “maintenance of entrainment (cortisol)” value is reported as 80.0%. Further, in series [6] (RESET, tasimelteon vs placebo), the “MoST (LS mean minutes), Difference” value came to 36.0 min and the “maintenance of entrainment (cortisol), Difference” value was found to be 60.0%. Further, in series [7], the “Entrained, number of patients” value is on record as 13 and the “Non-entrained, number of patients” value is reported as 21. In addition, in series [7] (Peak aMT6s <1500 ng/hr), the “Entrained, % of patients” value is recorded as 41%; the “Entrained, number of patients” value was determined as 12; the “Non-entrained, % of patients” value is given as 59%; the “Non-entrained, number of patients” value worked out at 17. In series [7] (Peak aMT6s <12000 ng/hr), the “Entrained, % of patients” value turned out to be 38% and the “Non-entrained, % of patients” value turned out to be 62%. Besides, in series [7] (Peak aMT6s >1500 ng/hr), the “Entrained, % of patients” value turned out to be 67%; the “Entrained, number of patients” value came to 12; the “Non-entrained, % of patients” value came out at 33%; the “Non-entrained, number of patients” value was determined as 6. Also, in series [7] (Peak aMT6s >2000 ng/hr), the “Entrained, % of patients” value worked out at 85%; the “Entrained, number of patients” value came to 11; the “Non-entrained, % of patients” value was 15%; the “Non-entrained, number of patients” value was 2. In series [7] (Peak aMT6s All), the “Entrained, % of patients” value worked out at 51%; the “Entrained, number of patients” value was 24; the “Non-entrained, % of patients” value was found to be 49%; the “Non-entrained, number of patients” value is on record as 23. In addition, in series [7] (Taking Beta Blocker: No), the “Entrained, number of patients” value turned out to be 24 and the “Non-entrained, number of patients” value turned out to be 19. Further, in series [7] (Taking Beta Blocker: Yes), the “Entrained, number of patients” value is reported as 0 and the “Non-entrained, number of patients” value is on record as 4. Also, in series [1] (setting [9]), the “Geometric Mean Ratio, AUC” value is recorded as 653.36%; the “Geometric Mean Ratio, CL/F” value turned out to be 15.31%; the “Geometric Mean Ratio, Cmax” value was found to be 232.74%; the “Geometric Mean Ratio, t1/2” value is 211.82%. Further, the AUC in series [1] (setting [10]) turned out to be 102 ± 61.5 ng·h/mL. In addition, in series [1] (setting [12]), the “AUC)-inf increase upon co-administration of fluvoxamine” value is on record as “approximately 7 fold” and the “Cmax increase upon co-administration of fluvoxamine” value is listed as “approximately 2 fold”. For the same molecule, the CL/F in series [2] (Non-Smokers) is on record as 1,482 ± 1,008 mL/mm. Moreover, the CL/F in series [2] (Smokers) is reported as 2,290 ± 1,232 mL/mm. In series [2] (Smokers vs Non-Smokers), the “Geometric Mean Ratio, AUC (inf)” value was found to be 60.14%; the “Geometric Mean Ratio, CL/F” value is listed as 166.27%; the “Geometric Mean Ratio, Cmax” value is reported as 63.98%; the “Geometric Mean Ratio, Vz/F” value was determined as 144.39%. The “Geometric Mean Ratio, t1/2” value in series [2] (Smokers vs Non-Smokers) amounted to 86.84%. In series [8], the tmax result is reported as “approximately one-half”.
